Four compounds from patent US10351594B2, “Process for preparing compounds having triple activities of thrombolysis, antithrombosis, and radical scavenging” (Shanghai Lumosa Therapeutics Co., Ltd., priority 2013, dated 2019) can be followed below.

Assay [1] concerns formation of thrombus (rat arteriovenous bypass). Nature of the assay: Antithrombotic activity via intravenous administration, rat arteriovenous bypass cannula with thread. Format: in vivo, male SD rats. The note with it: n = 10. The source says:
A cannula was composed of 3 segments. The middle segment has a length of 80 mm and an inner diameter of 3.5 mm. […] The pre-weighed, 60 mm in length thread was placed in the middle segment of the polyethylene tube. Both ends of the wider tube sheathed the un-narrowed ends of two polyethylene tubes respectively (0.5 mm of the thread was restrained by one of the segment to fix the thread). The cannula was filled with a heparin solution in normal saline (50 IU/kg) through the tip end by using an injector and was ready for use. 200-220 g male SD rats were anesthetized with 20% urethane solution (6 mL/kg, ip). Anesthetized rats were fixed in a supine position, and the left external jugular vein was separated and penetrated with a suture at the proximal and distal ends respectively, and the distal end was ligated. An incision was carefully made on the exposed left external jugular vein, and the tip end without thread-restraining of the bypass cannula prepared as described above was inserted into the proximal end of the open incision in the left external jugular vein. A precise amount of heparin in normal saline (50 IU/kg) was injected through the tip at the other end by using an injector. Then, the injector was replaced, and precise amount of drug was injected by the same way. At this moment, without removing the injector from the ethylene tube, the right common carotid artery was separated, and the proximal end was clipped by an artery clip. The right common carotid artery was penetrated with a suture at the proximal and distal ends respectively, and the distal end was ligated. An incision was carefully cut across the right common carotid artery near the artery clip. The injector was pulled out of the polyethylene tube through the tip, and the tip of the polyethylene tube was then inserted into the proximal end of the artery incision. Both ends of the bypass cannula were fixed to the artery or vein with #4 sutures. The artery clip was then removed to allow blood to flow from the artery to the vein through the bypass cannula. A rat arteriovenous bypass thrombolysis model was thus established. The process was timed from the beginning of circulation, the thread attached with thrombus was taken out from the bypass cannula after 15 minutes and accurately weighed. The difference in the mass of the thread before and after was determined as the wet weight of the thrombus, which was statistically analyzed and used to evaluate the in vivo antithrombotic activities of the compounds. The wet weight of the thrombus was expressed as average value and standard deviation (x±SD). The drug administration method is intravenous injection. The blank control was normal saline solution, and the dose was 1 mL/kg. The positive control was aspirin, and the dose was 9 mg/kg. The dose of compounds 5Aa-p of the present invention was 0.1 nmol/kg. The method was the same as in example 3. The drug administration method is intravenous injection. The blank control was normal saline solution, and the dose was 3 mL/kg. The positive control was aspirin, and the dose was 9 mg/kg.

In assay [2] the test system is thrombus (rat arteriovenous bypass thrombolysis model). Nature of the assay: Thrombolytic activity via intravenous administration, rat arteriovenous bypass thrombolysis model. The note with it: n = 10. It counts as in vivo, male SD rats. As for the experimental part:
200-220 g male SD rats were anesthetized with 20% urethane solution (6 mL/kg, ip). Anesthetized rats were fixed in a supine position, and the right common carotid artery was separated, clamped at the proximal end with an arterial clip, and penetrated with a suture at the proximal and distal ends, respectively. The suture at the distal end is clipped tightly by a hemostatic clamp at the skin/fur. Cannulation was performed at the distal end, the arterial clamp was loosened, and about 1 ml arterial blood was discharged into a 1 mL EP vial. 0.1 mL rat arterial blood was injected into a vertically fixed glass tube (15 mm in length, with an inner diameter of 2.5 mm and an outer diameter of 5.0 mm, sealed with a rubber stopper at the bottom), into which was immediately inserted a thrombus immobilization screw made of stainless steel. […] 40 min after the blood coagulated, the rubber stopper at the bottom of the glass tube was removed, the stem of the thrombus immobilization screw was fixed by forceps, and the thrombus-wrapped thrombus immobilization screw was carefully taken out from the glass tube and precisely weighted.
A bypass cannula was composed of 3 segments. The middle segment was a polyethylene tube having a length of 60 mm and an inner diameter of 3.5 mm. The segments on both ends were similar polyethylene tubes having a length of 100 mm, an inner diameter of 1 mm and an outer diameter of 2 mm, one end of which was pulled to form a tip, with an outer diameter of 1.0 mm (used in inserting into the rat carotid artery or vein), the other end of which was sheathed by a polyethylene tube having a length of 7 mm and an outer diameter of 3.5 mm (thickened, used in inserting into the polyethylene tube of the middle segment). The inner wall of the 3-segment cannula was entirely silylated. The thrombus-wrapped thrombus immobilization screw was placed into the polyethylene tube of the middle segment, and both ends of the tube sheath the thickened ends of two polyethylene tubes. The cannula was filled with a heparin solution in normal saline (50 IU/kg) through the tip end by using an injector and was ready for use.
The left external jugular vein of the rat was separated and penetrated with a suture at the proximal and distal ends respectively, and the distal end was ligated. An incision was carefully made on the exposed left external jugular vein, and the tip of the bypass cannula prepared as described above was inserted into the proximal end of the incision in the left external jugular vein, away from the stem of the thrombus immobilization screw in the middle segment of the bypass cannula (which accommodated the accurately weighed thrombus immobilization screw). A precise amount of heparin in saline (50 IU/kg) was injected through the tip at the other end by using an injector. At this moment, without removing the injector from the polyethylene tube, the tube between the injector and the polyethylene tube was clamped with a hemostatic clamp. The blood flow was stopped by clamping the proximal end of the right common carotid artery with an arterial clip, and an incision was cut carefully across the common carotid artery near the clip. The injector was pulled out of the polyethylene tube through the tip, and the tip of the polyethylene tube was then inserted into the proximal end of the artery incision. Both ends of the bypass cannula were fixed to the artery or vein with #4 sutures.
A scalp needle was used to pass saline solution, a urokinase in saline solution or varied concentrations of the compounds in saline solution through the middle section of the bypass cannula (which accommodated the accurately weighed thrombus immobilization screw) to a position at the proximal vein and away from the thrombus immobilization screw. The artery clip was then removed to allow blood to flow from the artery to the vein through the bypass cannula. A rat arteriovenous bypass thrombolysis model was thus established. […]

For another assay, the system named is stroke rats. Nature of the assay: Therapeutic effect in stroke rats (microthrombus injected into the brain, treated at once): Zealonga score and TTC infarction volume. The settings on record: for Neural function scores: Zealonga method, 24 hours after awake, n = 9; for Percentage of infarction volume: cerebral infarction, TTC, n = 7. It counts as in vivo, SD male rats. As for the experimental part:
SD male rats (280-300 g) were randomly divided to UK positive control group at a dose of 20000 IU/kg, blank control group with normal saline solution, compound control group with PAK at a dose of 5 μmol/kg, and compound 5Ak group at a dose of 1 μmol/kg (high), 0.1 μmol/kg (medium), and 0.01 μmol/kg (low). A 10% chloral hydrate solution (400 mg/kg) was injected intraperitoneally into rats for anesthesia. […] The 10 μl blood drawn was placed in a 1 mL EP vial and kept at RT for 30 min to allow the coagulation of blood and then transferred into a −20° C. refrigerator for 1 hour to allow the formation of solid coagulation. 1 hour later, the blood clots were taken out, 1 mL normal saline was added therein, and then the blood clots were broken into relatively uniform microthrombus by a steel spatula. The microthrombus suspension was then transferred into a 1 mL injector for use. […] The common jugular vein was separated, and then injected with UK at the dose of 20000 IU/kg, normal saline solution, or compound 5Ak at the dose of 1 μmol/kg. The vein was ligated. 3 drops of penicillin was dropped on the wound. The wound was sewed, and animals were waited for awake.
24 hours after the rats were awake, the degree of damage in neural function was evaluated by the Zealonga method. […] The evaluation results were statistically analyzed and subjected to t-test.
After the rats were awake for 24 hours and assessed for their degree of damage in neural function by Zealonga method, they were anesthetized with urethane followed by immediate decapitation and removal of the brain. Brain tissues were kept in a −20° C. refrigerator for 2 hours, and coronal sections of about 2 mm were successively sliced from the prefrontal end for a total of 5 sections and then placed into a 2% TTC solution to incubate without light at 37° C. for 30 min. The color change in brain sections was observed: normal brain tissues were stained red by TTC, while ischemic brain tissues appeared in white. Photographs were taken by using a digital camera and processed with image statistics software, and the volume of infarction in brain tissues and the area of normal brain tissues in the coronal sections were calculated. The ratio of the cerebral infarction volume of each group was statistically calculated and subject to t-test.

Setting [3] is: Table 1, control groups 6, PAK, 6 + PAK, dose not given.

Marks after values point to notes of the source that are not given here.

Take `CC(=O)Oc1ccccc1C(=O)O` [Aspirin, aspirin, reference compound]: the “wet weight of thrombus” value is 46.95 ± 5.21^a mg in assay [1] (Table 3, Aspirin 9 mg/kg) and 45.62 ± 2.60 mg in assay [1] (Table 4, Aspirin 9 mg/kg).

Regarding `CC1(C)N[C@H](C(=O)N[C@@H](CCCCN)C(=O)O)Cc2cc(O)c(O)cc21` [Compound 6, 3S-6,7-dihydroxy-1,1-dimethyl-1,2,3,4-tetrahydro-isoquinoline-3-acyl-Lys, reference compound], the “Weight reduction in thrombus” value in assay [2] (setting [3]) is 13.87 ± 3.07^a mg.

Regarding Pro-Ala-Lys [PAK, reference compound], the “Weight reduction in thrombus” value in assay [2] (setting [3]) is 14.17 ± 1.84^a mg. In the assay on stroke rats (PAK 5 μmol/kg), the Neural function scores is given as 2.20 ± 1.60 and the “Percentage of infarction volume” value is 18.36 ± 7.38%.

As to urokinase [reference compound], the “Weight reduction in thrombus” value in assay [2] (Table 1, urokinase 20000 U/kg (1.68 mg/kg) i.v.) is on record as 18.95 ± 2.73^a mg; in assay [2] (Table 2, Urokinase 20000 U/kg i.v.), 25.61 ± 3.87 mg. Besides, the Neural function scores with stroke rats (urokinase 20000 IU/kg) is recorded as 1.30 ± 0.95^a. For the same compound, the “Percentage of infarction volume” value in the assay on stroke rats (urokinase 20000 IU/kg) is recorded as 4.60 ± 2.09%.
